Tested on: endothelial nitric oxide synthase
Experiment: Screen for endothelial nitric oxide synthase inhibiting activity
Format: biochemical, human
Settings: reference standard at 1 μM; endothelial enzyme from HUVECs

inhibition of nitric oxide synthetase: 70-90%
SMILES: N=C(NCCC[C@H](N)C(=O)O)N[N+](=O)[O-] [N-nitro-L-arginine]

Source: patent US6166030A, “Compounds” (priority 1997, dated 2000)
